Results on two compounds are retold here after patent US9464326B2, “Total and phosphorylated IL-1 receptor-associated kinase-1 and IL-1 receptor-associated kinase-4 as a biomarker for cancer progression and chemotherapy resistance” (University of Maryland, Baltimore, priority 2012, dated 2016).

This experiment has as its system CCRF-CEM cells. Kind of experiment: Cell number and apoptosis assays. Type of experiment: cell-based, human. The conditions noted are these: IRAK-1,-4 inhibitor 0-20 μM plus titrated drug, apoptosis by 7AAD at 48 hours, FIG. 23. The method, then:
TLR ligands were diluted 2-fold. Cell lines (25-40×10^3/well) were cultured for 54 hours, whereas fresh patient-derived T-ALL cells (200×10^3/well) were cultured for 30 hours prior to adding [^3H]-thymidine for 18 hours. After this time point, cells were harvested with a Packard Filter-Mate-96 cell harvester (Perkin Elmer, Waltham, Mass., USA) and counted on Packard Top Count-NXT (Perkin Elmer, Waltham, Mass., USA). Results were expressed as average counts per minute (cpm). In some experiments CCRF-CEM cells were pre-treated with TLR1-TLR2 ligand (Pam3CysK4; 2.5 ug/ml) for 48 hrs, washed, and then cultured in the presence of varying concentrations of FBS. Forty-eight hours later, proliferation (±SD) was determined by ^3H-thymidine incorporation. Alternatively, apoptosis was measured by flow cytometry after staining cells with Annexin-V (BD Pharmingen, San Diego, Calif., USA) and propidium iodide (Sigma). Cell number was counted under microscopy by staining cells with trypan blue.
CCRF-CEM cells were treated with IRAK-1,-4 inhibitor for 24, 48, 72, and 96 hours.
The T-ALL cell line CCRF-CEM was cultured in the presence of 0, 1.2, 5, 10, and 20 μM IRAK-1,-4 inhibitor. (FIG. 23). To each concentration of IRAK-1,-4 inhibitor titrating doses of ABT-737 (1000→15 nM) vincristine, VS (10→0.1 nM), and paclitaxol, PAC (100→1.5 nM). […] Apoptosis was measure 48 hours later by staining cells with 7AAD and analyzed by flow cytometry.

For `CN(C)CC[C@H](CSc1ccccc1)Nc1ccc(S(=O)(=O)NC(=O)c2ccc(N3CCN(Cc4ccccc4-c4ccc(Cl)cc4)CC3)cc2)cc1[N+](=O)[O-]` [ABT-737], the “synergy with IRAK-1,-4 inhibitor” value was “synergy”.
Next, `CC(=O)O[C@H]1C(=O)[C@@]2(C)[C@H]([C@H](OC(=O)c3ccccc3)[C@]3(O)C[C@H](OC(=O)[C@H](O)[C@@H](NC(=O)c4ccccc4)c4ccccc4)C(C)=C1C3(C)C)[C@]1(OC(C)=O)CO[C@@H]1C[C@@H]2O` [paclitaxel]: “synergy”.
